Laboratory results: patent publication US9284283B2, “Macrocyclic compounds for modulating IL-17” (ENSEMBLE THERAPEUTICS CORPORATION, priority 2012, dated 2016)

Each compound was assayed against T1, biotinylated human IL-17 (binding to IL17R/Fc) (Homo sapiens, UniProt Q16552) (assay: IL-17 competition ELISA II (captured IL17R/Fc, biotinylated IL-17)).
T1 construct: purchased R&D Systems 317-ILB (IL-17, biotinylated); 177-IR (IL17R/Fc)
T1 sequence (Q16552 20-155 limits assumed): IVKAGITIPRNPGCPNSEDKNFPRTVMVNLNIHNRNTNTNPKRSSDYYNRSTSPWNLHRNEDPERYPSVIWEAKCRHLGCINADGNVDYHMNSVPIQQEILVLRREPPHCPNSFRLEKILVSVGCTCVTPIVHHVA
Method: In this version, a high binding 96-well plate (Costar #9018) was coated with 20 nM of goat anti-human IgG (KPL 01-10-02) in PBS, 100 μL/well, for 30 min at 37° C. followed by 5 min at 4° C. The plate was then washed in PBST (PBS/0.05% Tween-20) on a plate washer, (BioTek ELx450) then blocked with protein-free blocking buffer (Thermo Scientific #37573) in 250 μL/well for 30 min on a shaker at room temperature, and then washed again. IL17R/Fc (R&D Systems #177-IR; 10 nM in PBST, 100 μL/well) was then added to all wells. The plate was then incubated for 30 minutes at room temperature on the shaker.
While the receptor capture step was underway, compound dilutions were prepared in PBST to a concentration of 1 μM in 1.5 mL tubes. After the receptor capture step, the plate was washed and 50 μL PBST was added to the wells in row B down to row H. Then, 62.5 μL of the 1 μM compound dilutions were added to the wells of row A. From row A, 12.5 μL of the compound solution was removed and added to row B with mixing and this process of 5-fold dilutions was continued, by row, to row G. One of the wells in row A received only PBST (62.5 μL) and this dilution series served as the no competitor control. Then, going up from row G to row A, 50 μL of b-IL-17 (biotinylated human IL-17, R&D Systems #317-ILB; 20 nM) was added to all wells. Row H received 50 μL of PBST and served as the blank row, i.e., no compound and no b-IL-17. The plate was then incubated for 30 minutes at room temperature on the shaker.
After the wash, 100 μL Streptavidin-Horseradish Peroxidase (SA-HRP) (KPL #14-30-00) at 25 ng/mL in PBST was added to each well in the plate and the plate incubated for 30 minutes at room temperature followed by wash and 100 μL SureBlue™ TMB (KPL #52-00-03). After sufficient color development (approx 3-6 minutes), the reaction was fixed by the addition of 100 μL/well 0.5 N HCl and absorbance was measured at 450 nm on a BioTek Synergy 2 plate reader. The absorbances of ‘no competitor’ control and blank control should not exceed 1.5 A.U. and 0.06 A.U., respectively.
Data was processed using BioAssay Enterprise v10.1.4 (CambridgeSoft) software. Linear OD λ450 were plotted against log concentration (x) and fitted to a 4-parameter logistic equation. IC50 was calculated using positive ‘no competitor’ control data as an upper limit and blank control as a lower limit in each assay.

Row | Structure (SMILES) | IC50 [nM]
1 | O=C1CC2(CCCC2)CC(=O)N[C@H](Cc2ccc(NC(=O)[C@H](Cc3ccccc3Cl)NC(=O)Cc3ccc(CO)cc3)cc2)C(=O)NCCCCCN1 [Compound 394] | < 100
2 | Cc1ccc(C[C@H](NC(=O)C2(c3ccc(F)cc3)CC2)C(=O)Nc2ccc(C[C@H]3NC(=O)CC4(CCCC4)CC(=O)N(C)CCCCCNC(=O)[C@@H](C)NC3=O)cc2)c(C)c1 [Compound 509] | 100 to 1000
3 | O=C1CNC(=O)[C@@H](Cc2ccc(NC(=O)[C@@H](Cc3ccccc3Cl)NC(=O)Cc3ccccc3)cc2)NC(=O)CC2(CCCC2)CC(=O)NCCCCCN1 [Compound 526] | 100 to 1000
4 | CN1CCOCCOCCNC(=O)[C@@H](Cc2ccc(NC(=O)[C@@H](NC(=O)C(F)(F)c3ccccc3)C3CCCCC3)cc2)NC(=O)CC2(CCCC2)CC1=O [Compound 611] | < 100
5 | O=C1CC2(CCCC2)CC(=O)N[C@H](Cc2ccc(NC(=O)[C@H](Cc3ccccc3Cl)NC(=O)Cc3ccc(CO)cc3)cc2)C(=O)NCCOCCN1 [Compound 400] | < 100
6 | NC(=O)c1ccccc1C[C@H]1NC(=O)[C@@H](Cc2ccc(NC(=O)[C@H](Cc3ccccc3Cl)NC(=O)Cc3ccc(CO)cc3)cc2)NC(=O)CC2(CCCC2)CC(=O)N[C@H](C(=O)O)CCCCNC1=O [Compound 659] | < 100
7 | C[C@H]1NC(=O)[C@@H](Cc2ccc(NC(=O)[C@@H](NC(=O)C(F)(F)c3ccccc3)C3Cc4ccccc4C3)cc2)NC(=O)CC2(CCCC2)CC(=O)N(C)CCCCCN(C)C1=O [Compound 631] | < 100
8 | C[C@H]1NC(=O)[C@@H](Cc2ccc(NC(=O)[C@H](Cc3ccccc3Cl)NC(=O)Cc3cccc(O)c3)cc2)NC(=O)CC2(CCCC2)CC(=O)NCCCCCNC1=O [Compound 483] | < 100
9 | C[C@H]1NC(=O)[C@@H](Cc2ccc(NC(=O)[C@H](Cc3ccccc3Cl)NC(=O)C(=O)c3ccccc3)cc2)NC(=O)CC2(CCCC2)CC(=O)N(C)CCOCCN(C)C1=O [Compound 594] | < 100
10 | O=C1CC2(CCCC2)CC(=O)N[C@H](Cc2ccc(NC(=O)[C@H](Cc3ccccc3Cl)NC(=O)[C@H](O)c3ccccc3)cc2)C(=O)NCCCCCN1 [Compound 547] | 100 to 1000
11 | C[C@H]1NC(=O)[C@@H](Cc2ccc(NC(=O)[C@H](Cc3ccccc3Cl)NC(=O)Cc3ccc(F)cc3)cc2)NC(=O)CC2(CCCCC2)NC(=O)CCCCCCNC1=O [Compound 621] | < 100
12 | C[C@H]1NC(=O)[C@@H](Cc2ccc(NC(=O)[C@@H](NC(=O)Cc3ccc(N(C)C)cc3)C3CCCCC3)cc2)NC(=O)CC2(CCCC2)CC(=O)N(C)CCOCCN(C)C1=O [Compound 603] | < 100
13 | C[C@H]1NC(=O)[C@@H](Cc2ccc(NC(=O)[C@H](Cc3ccccc3Cl)NC(=O)C(F)(F)c3ccccc3)cc2)NC(=O)CC2(CCCC2)CC(=O)N2CCN(CCNC1=O)CC2 [Compound 542] | < 100
14 | C[C@H]1NC(=O)[C@@H](Cc2ccc(NC(=O)[C@H](Cc3ccccc3Cl)NC(=O)Oc3ccc(F)cc3)cc2)NC(=O)CC2(CCCC2)CC(=O)NCCCCCNC1=O [Compound 575] | < 100
15 | Cc1cccc(CC(=O)N[C@@H](Cc2ccccc2Cl)C(=O)Nc2ccc(C[C@H]3NC(=O)CC4(CCCC4)CC(=O)NCCOCCOCCNC3=O)cc2)c1 [Compound 496] | < 100
16 | O=C1CC2(CCCC2)CC(=O)N[C@H](Cc2ccc(NC(=O)[C@H](Cc3ccccc3Cl)NC(=O)Cc3ccccc3)cc2)C(=O)NC/C=C/CCCCCN1 [Compound 283] | 100 to 1000
17 | O=C1CNC(=O)[C@H](Cc2ccc(NC(=O)[C@@H](Cc3ccccc3Cl)NC(=O)Cc3ccccc3)cc2)NC(=O)CC2(CCCC2)CC(=O)NCCCCCN1 [Compound 452] | 1000 to 10000
18 | CN1CCNCCOC(=O)CC2(CCCC2)CC(=O)N(C)[C@H](Cc2ccc(NC(=O)[C@H](Cc3ccccc3Cl)NC(=O)Cc3ccccc3)cc2)C(=O)N[C@H](Cc2ccccc2)C1=O [Compound 426] | 100 to 1000
19 | O=C1CC2(CCCC2)CC(=O)N[C@H](Cc2ccc(NC(=O)[C@H](Cc3ccccc3Cl)NC(=O)[C@@H](O)c3ccccc3)cc2)C(=O)NCCCCCN1 [Compound 546] | 100 to 1000
20 | CN1CCOCCN(C)C(=O)[C@@H](Cc2ccccn2)NC(=O)[C@@H](Cc2ccc(NC(=O)[C@H](Cc3ccccc3Cl)NC(=O)C(F)(F)c3ccccc3)cc2)NC(=O)CC2(CCCC2)CC1=O [Compound 637] | < 100

Row | Structure (SMILES) | IC50 [nM]
21 | O=C1CC2(CCCC2)CC(=O)N[C@H](Cc2ccc(NC(=O)[C@@H](NC(=O)Cc3cccc(O)c3)C3CCCCC3)cc2)C(=O)NCCOCCOCCN1 [Compound 647] | < 100
22 | CN1CCNC(=O)CC2(CCCC2)CC(=O)N[C@H](Cc2ccc(NC(=O)[C@H](Cc3ccccc3Cl)NC(=O)Cc3ccccc3)cc2)C(=O)N[C@H](Cc2ccccc2)C(=O)N(C)CC1 [Compound 416] | < 100
23 | C[C@H]1NC(=O)[C@@H](Cc2ccc(NC(=O)[C@H](Cc3ccccc3Cl)NC(=O)Oc3ccccc3)cc2)NC(=O)CC2(CCCC2)CC(=O)NCCCCCNC1=O [Compound 586] | < 100
24 | CCOC(=O)N[C@@H](Cc1ccccc1Cl)C(=O)Nc1ccc(C[C@H]2NC(=O)CC3(CCCC3)CC(=O)NCCOCCOCCNC2=O)cc1 [Compound 579] | < 100
25 | COC(=O)N[C@@H](Cc1ccccc1Cl)C(=O)Nc1ccc(C[C@H]2NC(=O)CC3(CCCC3)CC(=O)N(C)CCN(C)CCN(C)C(=O)[C@@H](C)NC2=O)cc1 [Compound 588] | < 100
26 | C[C@H]1NC(=O)[C@@H](Cc2ccc(NC(=O)[C@@H](NC(=O)Cc3ccc(N(C)C)cc3)C3Cc4ccccc4C3)cc2)NC(=O)CC2(CCCC2)CC(=O)N(C)CCCCCN(C)C1=O [Compound 644] | < 100
27 | O=C1CNC(=O)[C@@H](Cc2ccc(NC(=O)[C@@H](NC(=O)C(F)(F)c3ccccc3)C3CCCCC3)cc2)NC(=O)CC2(CCCC2)CC(=O)OCCCCCN1 [Compound 671] | < 100
28 | CN1CCCC[C@@H](C(=O)O)N(C)C(=O)CC2(CCCC2)CC(=O)N[C@H](Cc2ccc(NC(=O)[C@H](Cc3ccccc3Cl)NC(=O)C(F)(F)c3ccccc3)cc2)C(=O)N[C@H](CCC(N)=O)C1=O [Compound 667] | < 100
29 | CN1CCNC(=O)CC2(CCCC2)CC(=O)N(C)[C@H](Cc2ccc(NC(=O)[C@H](Cc3ccccc3)N(C)C(=O)c3ccccc3)cc2)C(=O)N2CCC[C@H]2C(=O)NCC1 [Compound 371] | 1000 to 10000
30 | O=C1CC2(CCCC2)CC(=O)N[C@H](Cc2ccc(NC(=O)[C@H](Cc3ccccc3Cl)NC(=O)Cc3ccc(CO)cc3)cc2)C(=O)NCCCCN1 [Compound 393] | < 100
31 | O=C1CC2(CCCC2)CC(=O)N[C@H](Cc2ccc(NC(=O)[C@H](Cc3ccccc3Cl)NC(=O)NCc3ccccc3)cc2)C(=O)NCCOCCOCCN1 [Compound 463] | < 100
32 | C[C@H]1NC(=O)[C@@H](Cc2ccc(NC(=O)[C@@H](NC(=O)Cc3ccc(F)cc3)C3CCCCC3)cc2)NC(=O)CC2(CCCC2)CC(=O)N(C)CCCCCN(C)C1=O [Compound 623] | < 100
33 | O=C1CC2(CCCC2)CC(=O)N[C@H](Cc2ccc(NC(=O)[C@H](Cc3ccccc3Cl)NC(=O)Cc3ccccc3)cc2)C(=O)NCCNCCN1 [Compound 411] | < 100
34 | O=C1CNC(=O)[C@@H](Cc2ccc(NC(=O)[C@@H](NC(=O)C(F)F)C3CCCCC3)cc2)NC(=O)CC2(CCCC2)CC(=O)OCCCCCN1 [Compound 672] | < 100
35 | C[C@H]1NC(=O)[C@@H](Cc2ccc(NC(=O)[C@H](Cc3ccccc3Cl)NC(=O)Cc3ccc(F)cc3)cc2)NC(=O)[C@H]2CC[C@H](CC2)C(=O)NCCCCCNC1=O [Compound 592] | 100 to 1000
36 | CN1C(=O)CC2(CCCC2)CC(=O)NCCCCC#CCNC(=O)[C@H]1Cc1ccc(NC(=O)[C@H](Cc2ccccc2Cl)NC(=O)C2(c3ccc(F)cc3)CC2)cc1 [Compound 498] | 1000 to 10000
37 | O=C1CC2(CCCC2)CC(=O)N[C@H](Cc2ccc(NC(=O)[C@@H](NC(=O)Cc3cccc(O)c3)c3ccccc3)cc2)C(=O)NCCOCCOCCN1 [Compound 481] | 100 to 1000
38 | CN1C(=O)CC2(CCCC2)CC(=O)N[C@H](C(=O)O)CCCCNC(=O)[C@@H](C(C)(C)C)NC(=O)[C@H]1Cc1ccc(NC(=O)[C@H](Cc2ccccc2Cl)NC(=O)C2(c3ccc(F)cc3)CC2)cc1 [Compound 514] | 100 to 1000
39 | CC(O)[C@H]1NC(=O)[C@@H](Cc2ccc(NC(=O)[C@@H](NC(=O)C(F)(F)c3ccccc3)C3CCCCC3)cc2)NC(=O)CC2(CCCC2)CC(=O)N(C)CCOCCN(C)C1=O (stereo partly drawn) [Compound 655] | < 100
